Test system: patients with PBC
Assay: phase II study of elafibranor for the treatment of PBC (serum ALP, 12 weeks)
Format: in vivo, human
Details: for treatment effect estimate vs placebo, relative change in serum ALP (supportive analysis): ANCOVA with baseline ALP as covariate; for treatment effect estimate vs placebo, relative change in serum ALP (primary efficacy analysis): non-parametric randomization-based ANCOVA with baseline ALP as covariate, p<0.001; for mean relative change (%) from baseline to Endpoint in serum ALP: placebo 3.2%
Experimental: Elafibranor (2-(2,6-dimethyl-4-{3 [4-(methylsulfanyl)phenyl]-3-oxopropen-1-yl}phenoxy)-2-methylpropanoic acid) is a drug currently tested in a pivotal phase III study for the treatment of PBC. Elafibranor was also evaluated in a phase II study for the treatment of PBC. […] Elafibranor (2-(2,6-dimethyl-4-{3-[4-(methylsulfanyl)phenyl]-3-oxopropen-1-yl}phenoxy)-2-methylpropanoic acid) was supplied as 80 mg white to offwhite round coated tablets with no printed inscription. A placebo tablet (of the same size as the corresponding active tablet) to match elafibranor 80 mg was provided as a white to off-white round coated tablet with no printed inscription. The placebo tablet contained the same excipients as the active formulation as well as lactose monohydrate (which was used in place of the active ingredient). […] The treatment effect estimate was −52.0% (95% Cl [−62.5; −41.5]) for the elafibranor 80 mg treatment group and −43.9% (95% Cl [−55.7; −32.1]) for the elafibranor 120 mg treatment group (FIG. 1). The primary efficacy supportive analysis conducted using an ANCOVA with baseline ALP as a covariate was consistent with the primary efficacy analysis. The treatment effect estimate was −51.4% (95% Cl [−63.3; −39.5]) for the elafibranor 80 mg treatment group and −43.9% (95% Cl [−55.8; −31.9]) for the elafibranor 120 mg treatment group (FIG. 1).

Compound: CSc1ccc(C(=O)C=Cc2cc(C)c(OC(C)(C)C(=O)O)c(C)c2)cc1 [elafibranor, 2-(2,6-dimethyl-4-{3-[4-(methylsulfanyl)phenyl]-3-oxopropen-1-yl}phenoxy)-2-methylpropanoic acid]
- absolute change from baseline in serum ALP vs placebo at Endpoint (80 mg (p<0.001) and 120 mg treatment groups): statistically significantly different from placebo
- relative change from baseline in serum ALP vs placebo at Endpoint (80 mg and 120 mg treatment groups): statistically significantly different from placebo
- mean ALP values from baseline through Week 12 (80 mg and 120 mg treatment groups, FIG. 2): declining mean ALP values
- mean relative changes (%) in ALP values from baseline through Week 12 (80 mg and 120 mg treatment groups, beginning at Week 2 up through Week 12, FIG. 3): decrease in ALP values over time
- treatment effect estimate vs placebo, relative change in serum ALP (supportive analysis) (80 mg, 95% CI [−63.3, −39.5]): −51.4%
- treatment effect estimate vs placebo, relative change in serum ALP (primary efficacy analysis) (80 mg, 95% CI [−62.5, −41.5]): −52.0%
- treatment effect estimate vs placebo, relative change in serum ALP (supportive analysis) (120 mg, 95% CI [−55.8, −31.9]): −43.9%
- treatment effect estimate vs placebo, relative change in serum ALP (primary efficacy analysis) (120 mg, 95% CI [−55.7, −32.1]): −43.9%
- reduction in plasma ALP levels from baseline compared to placebo (PBC patients): consistent, statistically significant reduction
- mean relative change (%) from baseline to Endpoint in serum ALP (elafibranor 80 mg treatment group, PBC patients): −48.3%
- mean relative change (%) from baseline to Endpoint in serum ALP (elafibranor 120 mg treatment group, PBC patients): −40.6%
- safety and tolerability in patients (in vivo): safe and well-tolerated
